Experimental data published in patent US20260378560A1, “APPROACHES TO DESIGNING AND PERFORMING COMPRESSED BIOLOGICAL EXPERIMENTS AND SYSTEMS FOR IMPLEMENTING THE SAME” (EXVIVO LABS INC., priority 2023, published 2026).

Assays:
[1] = system: REH; assay: Cell viability (CellTiter Glo), library of cancer drugs, individual or sample compression with randomized (alphabetical) pools, REH; format: cell-based; details: REH; for DRS: None (measured individually); for DRS from deconvolution: Samples, 7 Pick 3 randomized (alphabetical) sample pools
Summary of the method: (§1)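 Cells cultured with each drug individually at 1 nM–10 μM; viability by ATP luminescence (CellTiter Glo) to build dose-response curves and DRS. Samples read singly or pooled alphabetically (each drug in 3 of 7 pools), with pooled DRS recovered by additivity-based SUM deconvolution.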

[2] = system: MOLT-4; assay: Cell viability (CellTiter Glo), library of cancer drugs, individual or sample compression with randomized (alphabetical) pools, MOLT-4; format: cell-based; details: for DRS: MOLT-4, None (measured individually); for DRS from deconvolution: MOLT-4, Samples, 7 Pick 3 randomized (alphabetical) sample pools
Summary of the method: as §1

[3] = system: REH; assay: Cell viability (CellTiter Glo), compressed perturbation pools with informed pool design, MAX-based deconvolution, REH; details: for DRS / DRS from MAX-based deconvolution / DRS, REH, MAX / top hit of cohort (deconvoluted effect size): REH; for DRS: None (measured individually), informed pool design table; for DRS from MAX-based deconvolution: Samples, 7 Pick 3 informed perturbation pools; for DRS, REH, MAX: compressed perturbation pools, informed pool design, MAX-based deconvolution; for top hit of cohort (deconvoluted effect size): informed perturbation pools;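 as to DRS from MAX-based deconvolution: higher DRS means a larger drug effect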
Summary of the method: (§2)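 Drugs dosed from 1 nM to 10 μM with ATP-luminescence viability, giving a DRS per drug. Pools designed by drug class, with same-class drugs in separate cohorts and clinically toxic pairs kept apart.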

[4] = system: MOLT-4; assay: Cell viability (CellTiter Glo), compressed perturbation pools with informed pool design, MAX-based deconvolution, MOLT-4; details: for DRS: MOLT-4, None (measured individually), informed pool design table; for DRS from MAX-based deconvolution: MOLT-4, Samples, 7 Pick 3 informed perturbation pools; for DRS, MOLT-4, MAX: compressed perturbation pools, informed pool design, MAX-based deconvolution; for top hit of cohort (deconvoluted effect size): informed perturbation pools;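 as to DRS from MAX-based deconvolution: higher DRS means a larger drug effect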
Summary of the method: as §2

[5] = system: REH; assay: Cell viability (CellTiter Glo), compressed perturbation pools with informed pool design, SUM-based deconvolution, REH; design: scale not given here
Protocol: (§3) Total cell viability was measured for each sample using an ATP-based luminescence assay (i.e., CellTiter Glo). Each cancer drug was then screened at multiple concentrations ranging from one nM to ten μM in order to generate a dose-response curve and calculate a DRS for each cancer cell line.
(§4) Each cancer drug was cultured with target cells individually. At the end of the screen, samples were either analyzed individually or compressed into pools for analysis. The library was compressed alphabetically into ten cohorts, each of which contained seven cancer drugs present in three out of the seven pools, as shown in Table VII. Said another way, the screening platform 210 generated a “7 pick 3” compressed library by assigning the cancer drugs among different pools. […] The library was also compressed into ten cohorts with pools designed based on information known about each cancer drug, as shown in Table VIII. After cell viability measurement and DRS calculation, the DRS of each cancer drug in the samples generated based on the pools were deconvoluted and compared to the DRS for each cancer drug measured individually.
(§5) In parallel to the exemplary sample compression screen covered in Table VII, perturbations were compressed into pools and then screened. The pools were designed using drug class as a feature with two compression rules (or simply “rules”). The first rule required that drugs from the same class be separated into different cohorts (i.e., mutually exclusive groups of pools). The second rule separated PI3K pathway inhibitors from MAPK pathway inhibitors, as inhibiting these pathways in parallel is known to be synergistic but has not been clinically effective due to dose-limiting toxicities. A benefit of compressing perturbations is the ability to measure additive, antagonistic, and synergistic effects between drugs in the same pool. However, these effects can negatively impact deconvolution of individual drug effects. Therefore, combinations of drugs for which evidence of clinical toxicity exists can be assigned to different pools in accordance with an informed pooling operation. As new preclinical or clinical evidence of toxic combinations becomes available, the rules implemented by the screening platform 210—and more specifically, its algorithm for compressing members of a library—can be updated accordingly.
(§6) In SUM-based deconvolution, an assumption of additivity is used to quantify the individual effects of each perturbation on each target. Additivity implies that each perturbation effect on each target is positively contributing to the overall effect measured for that pool. This is an accurate assumption for certain experiments, such as when targets or samples are compressed. When targets are pooled—or when samples containing different targets are pooled—the effect of each perturbation on each individual target is diluted. In other words, each perturbation has an isolated effect on a target in culture, and the sum total of the isolated effects are measured when pooled. Therefore, SUM-based deconvolution breaks down the sum total measured for a pool and assigns estimated fractional effects to each compressed perturbation or target in the pool. The screening platform 210 used SUM-based deconvolution for all target and sample compression experiments described above.
(§7) As mentioned above, SUM-based deconvolution uses the overlapping pool design to identify relative relationships and ranges for the individual effects of each perturbation. When the overlapping pool design is not sufficient to solve for the polynomials representing perturbation effects, an anchor perturbation can be identified by the screening platform 210 based on rank order and assigned an effect size of zero. The anchor perturbation may be the lowest ranked perturbation in the rank order. This then enables the screening platform 210 to solve for the polynomials for the remaining perturbations.

[6] = system: MOLT-4; assay: Cell viability (CellTiter Glo), compressed perturbation pools with informed pool design, SUM-based deconvolution, MOLT-4; design: scale not given here
Protocol: as §3, §4, §5, §6, §7

SMILES: CCOc1cc2ncc(C#N)c(Nc3ccc(OCc4ccccn4)c(Cl)c3)c2cc1NC(=O)/C=C/CN(C)C [Neratinib]
- DRS [1]: 2.58
- DRS from deconvolution [1]: 2.32
- DRS [2]: 4.08
- DRS from deconvolution [2]: 4.32
- DRS [3]: 29.39
- DRS from MAX-based deconvolution [3]: 34.11
- DRS, REH, MAX [3]: 3.06
- effect size relative to everolimus ([4]; MOLT, Cohort 10): larger effect size than everolimus
- DRS [4]: 29.89
- DRS from MAX-based deconvolution [4]: 35.00
- DRS, MOLT-4, MAX [4]: 4.35
- DRS, REH, SUM [5]: 0.37
- DRS, MOLT-4, SUM [6]: 2.74

SMILES: NC(=O)c1cccc2cn(-c3ccc([C@@H]4CCCNC4)cc3)nc12 [Niraparib]
- DRS [1]: 0.70
- DRS from deconvolution [1]: 0.59
- DRS [2]: 4.30
- DRS from deconvolution [2]: 4.85
- DRS [3]: 4.42
- DRS from MAX-based deconvolution [3]: 5.23
- DRS, REH, MAX [3]: 0.00
- DRS [4]: 6.12
- DRS from MAX-based deconvolution [4]: 8.06
- DRS, MOLT-4, MAX [4]: 0.00
- DRS, REH, SUM [5]: 0.00
- DRS, MOLT-4, SUM [6]: 0.00

SMILES: Cc1ccc(Nc2nccc(N(C)c3ccc4c(C)n(C)nc4c3)n2)cc1S(N)(=O)=O [Pazopanib]
- DRS [1]: 5.88
- DRS from deconvolution [1]: 5.90
- DRS [2]: 0.68
- DRS from deconvolution [2]: 0.00
- DRS [3]: 3.93
- DRS from MAX-based deconvolution [3]: 4.01
- DRS, REH, MAX [3]: 7.06
- DRS [4]: 3.50
- DRS from MAX-based deconvolution [4]: 0.00
- DRS, MOLT-4, MAX [4]: 5.39
- DRS, REH, SUM [5]: 8.02
- DRS, MOLT-4, SUM [6]: 2.41

SMILES: O=C(/C=C\n1cnc(-c2cc(C(F)(F)F)cc(C(F)(F)F)c2)n1)NNc1cnccn1 [Selinexor]
- DRS [1]: 21.81
- DRS from deconvolution [1]: 21.40
- DRS [2]: 24.71
- DRS from deconvolution [2]: 25.16
- DRS [3]: 2.30
- DRS from MAX-based deconvolution [3]: 2.51
- top hit of cohort (deconvoluted effect size) [3]: top hit
- DRS, REH, MAX [3]: 23.72
- top hit of cohort (deconvoluted effect size) ([4]; MOLT): top hit
- DRS [4]: 0.00
- DRS from MAX-based deconvolution [4]: 0.00
- DRS, MOLT-4, MAX [4]: 24.91
- DRS, REH, SUM [5]: 26.41
- DRS, MOLT-4, SUM [6]: 24.24

SMILES: CO[C@H]1C[C@@H]2CC[C@@H](C)[C@@](O)(O2)C(=O)C(=O)N2CCCC[C@H]2C(=O)O[C@H]([C@H](C)C[C@@H]2CC[C@@H](OC(=O)C(C)(CO)CO)[C@H](OC)C2)CC(=O)[C@H](C)/C=C(\C)[C@@H](O)[C@@H](OC)C(=O)[C@H](C)C[C@H](C)/C=C/C=C/C=C/1C [Temsirolimus]
- DRS [1]: 8.19
- DRS from deconvolution [1]: 8.71
- DRS [2]: 2.99
- DRS from deconvolution [2]: 3.21
- effect on REH relative to MOLT cell line ([3]; REH relative to MOLT): much larger effects on the REH cell line
- DRS [3]: 8.19
- DRS from MAX-based deconvolution [3]: 9.23
- top hit of cohort (deconvoluted effect size) [3]: top hit
- DRS, REH, MAX [3]: 9.23
- top hit of cohort (deconvoluted effect size) ([4]; MOLT): top hit
- DRS [4]: 2.99
- DRS from MAX-based deconvolution [4]: 3.88
- DRS, MOLT-4, MAX [4]: 3.88
- DRS, REH, SUM [5]: 9.71
- DRS, MOLT-4, SUM [6]: 2.54
